Values after ≈ are worked out from the molar mass of the structure shown.

The values that follow come from ChEMBL document CHEMBL3046348, “Synthesis and antimicrobial screening of novel 2,6-ditertiarybutylpiperidin-4-ones” (2012).

What all share (assay type): functional
One assay relates to Trichoderma. The assay is described as follows: Antifungal activity against Trichoderma sp after 72 to 96 hr by serial dilution method.
A further assay has as its system Aspergillus niger. The assay is described as follows: Antifungal activity against Aspergillus niger after 72 to 96 hr by serial dilution method.
A further assay deals with Bacillus subtilis. The assay is described as follows: Antibacterial activity against Bacillus subtilis after 24 hr by serial dilution method.
Another assay deals with Klebsiella pneumoniae. The assay can be described thus: Antibacterial activity against Klebsiella pneumoniae after 24 hr by serial dilution method.
For the next assay, the system named is Escherichia coli. The assay is described as follows: Antibacterial activity against Escherichia coli after 24 hr by serial dilution method.

Broadly, the MIC is the least concentration at which growth counts as inhibited. Low readings indicate greater potency, high ones weaker potency. Consider `C[C@@H]1[C@H](O)[C@@H](C)/C=C/C=C/C=C/C=C/C=C/C=C/C=C/[C@H](O[C@@H]2O[C@H](C)[C@@H](O)[C@H](N)[C@@H]2O)C[C@@H]2O[C@](O)(C[C@@H](O)C[C@@H](O)[C@H](O)CC[C@@H](O)C[C@@H](O)CC(=O)O[C@H]1C)C[C@H](O)[C@H]2C(=O)O` [AMPHOTERICIN B], for which the minimal inhibitory concentration (MIC) with Trichoderma and with Aspergillus niger was 32 µg/mL (≈ 34.6 µM) in each case.
Turning to `CC1C(=O)CC(C(C)(C)C)NC1C(C)(C)C` (stereo not given), the minimal inhibitory concentration (MIC) was 16 µg/mL (≈ 71 µM) in the assay on Bacillus subtilis; 16 µg/mL (≈ 71 µM) in the assay on Trichoderma; more than 512 µg/mL against Klebsiella pneumoniae; 256 µg/mL (≈ 1140 µM) with Escherichia coli; 8 µg/mL (≈ 35.5 µM) in the assay with Aspergillus niger.
As to `CCOC(=O)C1C(=O)CC(C(C)(C)C)N(C(C)(C)C)C1C(C)(C)C` (stereo not given), the minimum inhibitory concentration (MIC) is 16 µg/mL (≈ 47.1 µM) against Bacillus subtilis; more than 512 µg/mL in the assay on Trichoderma; 256 µg/mL (≈ 754 µM) against Klebsiella pneumoniae; 64 µg/mL (≈ 189 µM) against Escherichia coli; more than 512 µg/mL with Aspergillus niger.
`CC1C(=O)CC(C(C)(C)C)N(N=O)C1C(C)(C)C` (stereo not given): the minimal inhibitory concentration (MIC) was 16 µg/mL (≈ 62.9 µM) in the assay with Bacillus subtilis; 8 µg/mL (≈ 31.4 µM) in the assay on Trichoderma; 512 µg/mL (≈ 2010 µM) in the assay on Klebsiella pneumoniae; more than 512 µg/mL in the assay on Escherichia coli; 16 µg/mL (≈ 62.9 µM) against Aspergillus niger.
Consider `CCn1cc(C(=O)O)c(=O)c2cc(F)c(N3CCNCC3)cc21` [NORFLOXACIN], for which the values for the MIC against Bacillus subtilis, against Klebsiella pneumoniae and in the assay on Escherichia coli were 16 µg/mL (≈ 50.1 µM), 16 µg/mL (≈ 50.1 µM) and 32 µg/mL (≈ 100 µM), respectively.
In the case of `CC(C)(C)C1CC(=O)CC(C(C)(C)C)N1C(C)(C)C` (stereo not given), the MIC in the assay with Bacillus subtilis came out at 8 µg/mL (≈ 29.9 µM); in the assay on Trichoderma, 16 µg/mL (≈ 59.8 µM); with Klebsiella pneumoniae it was 128 µg/mL (≈ 479 µM); against Escherichia coli it was 64 µg/mL (≈ 239 µM); in the assay on Aspergillus niger, 8 µg/mL (≈ 29.9 µM).
On to `CCOC(=O)C1C(=O)CC(C(C)(C)C)N(N=O)C1C(C)(C)C` (stereo not given), for which the MIC is 64 µg/mL (≈ 205 µM) in the assay on Bacillus subtilis; 32 µg/mL (≈ 102 µM) in the assay with Trichoderma; 32 µg/mL (≈ 102 µM) in the assay on Klebsiella pneumoniae; 64 µg/mL (≈ 205 µM) in the assay with Escherichia coli; 64 µg/mL (≈ 205 µM) in the assay on Aspergillus niger.
Turning to `CC(C)(C)C1CC(=NO)CC(C(C)(C)C)N1` (stereo not given), the MIC against Bacillus subtilis is 64 µg/mL (≈ 283 µM); against Trichoderma, 16 µg/mL (≈ 70.7 µM); with Klebsiella pneumoniae it was more than 512 µg/mL; in the assay with Escherichia coli, 256 µg/mL (≈ 1130 µM); with Aspergillus niger, 64 µg/mL (≈ 283 µM).
`CC1C(=O)CC(C(C)(C)C)N(C(C)(C)C)C1C(C)(C)C` (stereo not given): the MIC in the assay on Bacillus subtilis was 16 µg/mL (≈ 56.8 µM); in the assay on Trichoderma it was 16 µg/mL (≈ 56.8 µM); in the assay with Klebsiella pneumoniae, 64 µg/mL (≈ 227 µM); against Escherichia coli, more than 512 µg/mL; against Aspergillus niger it was 8 µg/mL (≈ 28.4 µM).
In the case of `CCOC(=O)C1C(=O)CC(C(C)(C)C)NC1C(C)(C)C` (stereo not given), the MIC against Bacillus subtilis was 8 µg/mL (≈ 28.2 µM); in the assay on Trichoderma, 32 µg/mL (≈ 113 µM); against Klebsiella pneumoniae, 128 µg/mL (≈ 452 µM); in the assay on Escherichia coli, 64 µg/mL (≈ 226 µM); with Aspergillus niger, 8 µg/mL (≈ 28.2 µM).
Consider `CCOC(=O)C1/C(=N\O)CC(C(C)(C)C)NC1C(C)(C)C` (stereo not given), for which the MIC against Bacillus subtilis was 64 µg/mL (≈ 214 µM); in the assay with Trichoderma, 8 µg/mL (≈ 26.8 µM); with Klebsiella pneumoniae it was 64 µg/mL (≈ 214 µM); with Escherichia coli it was 16 µg/mL (≈ 53.6 µM); against Aspergillus niger, 8 µg/mL (≈ 26.8 µM).
For the compound `CC(C)(C)C1CC(=O)CC(C(C)(C)C)N1` (stereo not given), the minimum inhibitory concentration (MIC) in the assay on Bacillus subtilis worked out at 8 µg/mL (≈ 37.9 µM); with Trichoderma it was 8 µg/mL (≈ 37.9 µM); with Klebsiella pneumoniae, 64 µg/mL (≈ 303 µM); with Escherichia coli, 64 µg/mL (≈ 303 µM); against Aspergillus niger, 8 µg/mL (≈ 37.9 µM).
Turning to `CC(C)(C)C1CC(=O)CC(C(C)(C)C)N1N=O` (stereo not given), the minimum inhibitory concentration (MIC) is 16 µg/mL (≈ 66.6 µM) against Bacillus subtilis; more than 512 µg/mL in the assay with Trichoderma; 256 µg/mL (≈ 1070 µM) in the assay with Klebsiella pneumoniae; more than 512 µg/mL in the assay with Escherichia coli; more than 512 µg/mL against Aspergillus niger.
With `CC1/C(=N/O)CC(C(C)(C)C)NC1C(C)(C)C` (stereo not given), the minimum inhibitory concentration (MIC) was 16 µg/mL (≈ 66.6 µM) against Bacillus subtilis; 8 µg/mL (≈ 33.3 µM) with Trichoderma; 32 µg/mL (≈ 133 µM) against Klebsiella pneumoniae; more than 512 µg/mL against Escherichia coli; 8 µg/mL (≈ 33.3 µM) against Aspergillus niger.
